Measurements reported in PubChem BioAssay (NCI).
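96-well plates; 48 h exposure; 5 concentrations. Endpoints by linear interpolation between flanking doses. Not reached: highest tested concentration assigned. GI50: concentration for 50% inhibition of growth. Definition used: TGI = concentration required for complete inhibition of growth.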

What was measured:
Test in all cases: growth of human tumour cells (NCI), 48 h
[1] = test system: 786-0 renal
[2] = test system: A498 renal
[3] = test system: A549 NSCLC
[4] = test system: ACHN renal
[5] = test system: BT-549 breast
[6] = test system: CAKI-1 renal
[7] = test system: CCRF-CEM leukemia
[8] = test system: COLO 205 colon
[9] = test system: DU-145 prostate
[10] = test system: EKVX NSCLC
[11] = test system: HCC-2998 colon
[12] = test system: HCT-116 colon
[13] = test system: HCT-15 colon
[14] = test system: HL-60(TB) leukemia
[15] = test system: HOP-62 NSCLC
[16] = test system: HOP-92 NSCLC
[17] = test system: HS 578T breast
[18] = test system: HT29 colon
[19] = test system: IGROV1 ovarian
[20] = test system: K-562 leukemia
[21] = test system: KM12 colon
[22] = test system: LOX IMVI melanoma
[23] = test system: M14 melanoma
[24] = test system: MALME-3M melanoma
[25] = test system: MCF7 breast
[26] = test system: MDA-MB-231 breast
[27] = test system: MDA-MB-435
[28] = test system: MOLT-4 leukemia
[29] = test system: NCI-H226 lung
[30] = test system: NCI-H23 lung
[31] = test system: NCI-H460 lung
[32] = test system: NCI-H522 lung
[33] = test system: NCI/ADR-RES ovarian
[34] = test system: OVCAR-3 ovarian
[35] = test system: OVCAR-4 ovarian
[36] = test system: OVCAR-5 ovarian
[37] = test system: OVCAR-8 ovarian
[38] = test system: PC-3 prostate
[39] = test system: RPMI-8226 leukemia
[40] = test system: RXF 393 renal
[41] = test system: SF-268 CNS
[42] = test system: SF-295 CNS
[43] = test system: SF-539 CNS
[44] = test system: SK-MEL-2 melanoma
[45] = test system: SK-MEL-28 melanoma
[46] = test system: SK-MEL-5 melanoma
[47] = test system: SK-OV-3 ovarian
[48] = test system: SN12C renal
[49] = test system: SNB-19 CNS
[50] = test system: SNB-75 CNS
[51] = test system: SR leukemia
[52] = test system: SW-620 colon
[53] = test system: T-47D breast
[54] = test system: TK-10 renal
[55] = test system: U251 CNS
[56] = test system: UACC-257 melanoma
[57] = test system: UACC-62 melanoma
[58] = test system: UO-31 renal

Question: With `CCCCc1nc2cc(/C=C/C(=O)NO)ccc2n1CCN(CC)CC` as the compound, how does the GI50 [1] read?
Answer: 460 nM

Question: What about the TGI [1] of the same compound?
Answer: 11500 nM

Question: What about the GI50 [2] of the same compound?
Answer: 194 nM

Question: What about the TGI [2] of the same compound?
Answer: 658 nM

Question: What about the GI50 [3] of the same compound?
Answer: 318 nM

Question: And the TGI [3]?
Answer: 2400 nM

Question: What about the GI50 [4] of the same compound?
Answer: 285 nM

Question: And the TGI [4]?
Answer: 1440 nM

Question: And the GI50 [5]?
Answer: 1980 nM

Question: What about the TGI [5] of the same compound?
Answer: 38200 nM

Question: What about the GI50 [6] of the same compound?
Answer: 237 nM

Question: What about the TGI [6] of the same compound?
Answer: 943 nM

Question: And the GI50 [7]?
Answer: 317 nM

Question: And the TGI [7]?
Answer: > 100000 nM

Question: And the GI50 [8]?
Answer: 138 nM

Question: And the TGI [8]?
Answer: 298 nM

Question: What about the GI50 [9] of the same compound?
Answer: 302 nM

Question: What about the TGI [9] of the same compound?
Answer: 4640 nM

Question: What about the GI50 [10] of the same compound?
Answer: 387 nM

Question: What about the TGI [10] of the same compound?
Answer: > 100000 nM

Question: What about the GI50 [11] of the same compound?
Answer: 242 nM

Question: And the TGI [11]?
Answer: 1230 nM

Question: And the GI50 [12]?
Answer: 115 nM

Question: And the TGI [12]?
Answer: 571 nM

Question: What about the GI50 [13] of the same compound?
Answer: 1470 nM

Question: And the TGI [13]?
Answer: 22400 nM

Question: And the GI50 [14]?
Answer: 441 nM

Question: What about the TGI [14] of the same compound?
Answer: > 100000 nM

Question: And the GI50 [15]?
Answer: 322 nM

Question: What about the TGI [15] of the same compound?
Answer: 11600 nM

Question: What about the GI50 [16] of the same compound?
Answer: 82.1 nM

Question: What about the TGI [16] of the same compound?
Answer: 456 nM

Question: What about the GI50 [17] of the same compound?
Answer: 515 nM

Question: And the TGI [17]?
Answer: 33000 nM

Question: What about the GI50 [18] of the same compound?
Answer: 198 nM

Question: What about the TGI [18] of the same compound?
Answer: 762 nM

Question: And the GI50 [19]?
Answer: 733 nM

Question: What about the TGI [19] of the same compound?
Answer: 5670 nM

Question: And the GI50 [20]?
Answer: 282 nM

Question: And the TGI [20]?
Answer: > 100000 nM

Question: What about the GI50 [21] of the same compound?
Answer: 356 nM

Question: And the TGI [21]?
Answer: 5730 nM

Question: What about the GI50 [22] of the same compound?
Answer: 291 nM

Question: What about the TGI [22] of the same compound?
Answer: 1280 nM

Question: What about the GI50 [23] of the same compound?
Answer: 358 nM

Question: What about the TGI [23] of the same compound?
Answer: 5320 nM

Question: What about the GI50 [24] of the same compound?
Answer: 153 nM

Question: What about the TGI [24] of the same compound?
Answer: 22200 nM

Question: And the GI50 [25]?
Answer: 202 nM

Question: What about the TGI [25] of the same compound?
Answer: > 20300 nM

Question: And the GI50 [26]?
Answer: 485 nM

Question: What about the TGI [26] of the same compound?
Answer: 5430 nM

Question: And the GI50 [27]?
Answer: 240 nM

Question: What about the TGI [27] of the same compound?
Answer: 855 nM

Question: What about the GI50 [28] of the same compound?
Answer: 384 nM

Question: And the TGI [28]?
Answer: > 88800 nM

Question: What about the GI50 [29] of the same compound?
Answer: 608 nM

Question: And the TGI [29]?
Answer: 3450 nM

Question: And the GI50 [30]?
Answer: 452 nM

Question: What about the TGI [30] of the same compound?
Answer: 7720 nM

Question: What about the GI50 [31] of the same compound?
Answer: 312 nM

Question: And the TGI [31]?
Answer: > 100000 nM

Question: And the GI50 [32]?
Answer: 80.2 nM

Question: What about the TGI [32] of the same compound?
Answer: 520 nM

Question: And the GI50 [33]?
Answer: 239 nM

Question: What about the TGI [33] of the same compound?
Answer: 4030 nM

Question: And the GI50 [34]?
Answer: 363 nM

Question: What about the TGI [34] of the same compound?
Answer: 1830 nM

Question: What about the GI50 [35] of the same compound?
Answer: 345 nM

Question: What about the TGI [35] of the same compound?
Answer: > 54200 nM

Question: What about the GI50 [36] of the same compound?
Answer: 130 nM

Question: What about the TGI [36] of the same compound?
Answer: 1400 nM

Question: And the GI50 [37]?
Answer: 104 nM

Question: And the TGI [37]?
Answer: 5540 nM

Question: What about the GI50 [38] of the same compound?
Answer: 327 nM

Question: And the TGI [38]?
Answer: 16200 nM

Question: What about the GI50 [39] of the same compound?
Answer: 176 nM

Question: And the TGI [39]?
Answer: > 100000 nM

Question: And the GI50 [40]?
Answer: 178 nM

Question: And the TGI [40]?
Answer: 789 nM

Question: And the GI50 [41]?
Answer: 552 nM

Question: What about the TGI [41] of the same compound?
Answer: 7550 nM

Question: And the GI50 [42]?
Answer: 260 nM

Question: And the TGI [42]?
Answer: 1230 nM

Question: And the GI50 [43]?
Answer: 335 nM

Question: What about the TGI [43] of the same compound?
Answer: 18500 nM

Question: And the GI50 [44]?
Answer: 153 nM

Question: And the TGI [44]?
Answer: 506 nM

Question: What about the GI50 [45] of the same compound?
Answer: 254 nM

Question: What about the TGI [45] of the same compound?
Answer: 1580 nM

Question: And the GI50 [46]?
Answer: 146 nM

Question: And the TGI [46]?
Answer: 339 nM

Question: And the GI50 [47]?
Answer: 241 nM

Question: What about the TGI [47] of the same compound?
Answer: 880 nM

Question: What about the GI50 [48] of the same compound?
Answer: 489 nM

Question: And the TGI [48]?
Answer: 30100 nM

Question: What about the GI50 [49] of the same compound?
Answer: 593 nM

Question: What about the TGI [49] of the same compound?
Answer: 12200 nM

Question: What about the GI50 [50] of the same compound?
Answer: 227 nM

Question: What about the TGI [50] of the same compound?
Answer: 25400 nM

Question: And the GI50 [51]?
Answer: 605 nM

Question: What about the TGI [51] of the same compound?
Answer: > 100000 nM

Question: What about the GI50 [52] of the same compound?
Answer: 228 nM

Question: And the TGI [52]?
Answer: 3320 nM

Question: And the GI50 [53]?
Answer: 136 nM

Question: And the TGI [53]?
Answer: > 47400 nM

Question: What about the GI50 [54] of the same compound?
Answer: 116 nM

Question: And the TGI [54]?
Answer: 598 nM

Question: What about the GI50 [55] of the same compound?
Answer: 280 nM

Question: And the TGI [55]?
Answer: 1430 nM

Question: And the GI50 [56]?
Answer: 75.9 nM

Question: And the TGI [56]?
Answer: 580 nM

Question: What about the GI50 [57] of the same compound?
Answer: 188 nM

Question: What about the TGI [57] of the same compound?
Answer: 743 nM

Question: What about the GI50 [58] of the same compound?
Answer: 250 nM

Question: What about the TGI [58] of the same compound?
Answer: 4920 nM
